# Experimental data published in patent US6194217A, “Method of diagnosing or categorizing disorders from biochemical profiles” (ESA, Inc., priority 1993, dated 2001).
# Read-outs that look alike come from different tables or passages of the source.
# What was measured:
# [1] = Stability in perchloric acid extracts of nasal secretions over 24 hours at room temperature; format: physicochemical
# Text: (§1) Two characteristics make nasal secretions attractive for neurochemical analysis. The secretions are close to the site or origin of the compounds being measured and they are in a strong reducing environment. Oxidation potential measurements of saline suspensions of nasal secretions with platinum vs. Ag/Ag/cl yield values from -0.230 to -0.300 mV compared to lumbar CSF values of -0.050 to -0.170. The reducing character of the tissue is consistent with observation of a large number of easily oxidized peaks on the lower channels of the chromatographic pattern. The reducing character of the sample makes it highly attractive for clinical use because of the stability inferred for the target compounds. Indeed preliminary studies indicate no change in 5-hydroxyindoleacetic acid or homovanillic acid over 24 hours in perchloric acid extracts at room temperature. From the number of peaks in the 35-50 min region, the nasal mucosa also appear to be a stable matrix for small peptides, including fragments of β-amyloid peptide.
# Swabs were extracted by cutting the tip and placing it in 300 μl of 0.1 M HClO4, they ere vortexed for 1 min. centrifuged and then reextracted in another 300 μl of 0.1 M HClO4. […] Following centrifugation the pellets are combined, and can be extracted with 40:60 acetonitrilehexane for analysis of ubiquinones and larger peptides.
# [2] = Incubation of β-amyloid in saline suspensions of nasal mucosa, development of electroactive peaks; format: in vitro ADME; settings: over 6 hours, FIG. 7
# Text: as §1
compound,measurement,setting,value
O=C(O)Cc1c[nH]c2ccc(O)cc12 [5-hydroxyindoleacetic acid],change over 24 hours (stability),[1],no change
COc1cc(CC(=O)O)ccc1O [homovanillic acid],change over 24 hours (stability),"[1]; 24 hours, perchloric acid extracts, room temperature, preliminary studies",no change
β-amyloid,development of electroactive peaks,[2],development over 6 hours of electroactive peaks
same,electroactive peaks which corresponded to original peaks in the suspension,[2],five
